Where a name gives a salt, the structure may show the parent alone.
Experiments:
rabbits = assay: intravenous cocaine-HCl challenge of rabbits immunized with COALB
Procedure: Rabbits were immunized with COALB by subcutaneous injection of 100 μg of the benzoylecgonine-conjugated immunogen every two weeks for a period of two months (four injections). Freund's complete adjuvant was used in the first injection and Freund's incomplete adjuvant was utilized for subsequent injections.

[1] = stated in brackets beside the i.v. challenge dose; cited from earlier work

Structure (SMILES): COC(=O)[C@H]1[C@@H](OC(=O)c2ccccc2)C[C@@H]2CC[C@H]1N2C [cocaine-HCl]
- physiologic/toxic effects of cocaine in control (un-immunized) rabbits (rabbits; cocaine-HCl 2 mg/kg i.v. in sterile saline): marked grande maul convulsions
- time to recovery of control rabbits after cocaine (rabbits; cocaine-HCl 2 mg/kg i.v., un-immunized rabbits): 10 to 15 min
- LD50 [1]: 12 mg/kg

Source: US20080063660A1, “Method to reduce the physiologic effects of drugs on mammals” (Anarco, Inc., priority 1993, published 2008)
